Assay results as given in patent US8470534B2, “Methods of predicting resistance or sensitivity to therapies for cancer” (priority 2006, dated 2013).

Tests used:
MCF7 cells = assay: Cell growth assay in CDT/Tam over 9 days; format: cell-based, human
Protocol: To understand the impact of RB deficiency on the response to hormone deprivation therapy, cells are cultured in CDT, CDT/Tam, or in the presence of pure antiestrogen, ICI182780 (CDT/ICI). Following treatment with these modalities, cells are labeled with BrdU to determine the influence of each agent on cell-cycle progression and the corresponding influence of RB knockdown on this response (FIG. 4B). These experiments are recapitulated in the polyclonal populations of T47D and Zr-75-1 donor and siRb88 cells (FIG. 4C). […] To elucidate the long-term growth effects of these therapies, cell proliferation assays are performed over 9 days. RB-proficient and -deficient MCF7 cells are seeded at equal densities and cultured in CDT/Tam (FIG. 4D). […] Similar results are evident in the same experiments with both T47D and Zr-75-1 RB-proficient and -deficient polyclonal pools (FIG. 4E).
(§1) To study the effect of estrogen depletion, cells are cultured for 72 hours in phenol red-free DMEM supplemented with 10% CDT serum with addition of 10^−9 M 4-HydroxyTam or 10^−6 M ICI where indicated. Cell growth assays are performed by trypsinizing cells and counting by trypan blue exclusion every 3 days.

[1] = tested on: MCF7 donor or siRb xenograft tumors; assay: Nude mouse xenograft therapeutic study; format: in vivo, nude mice; conditions: for tumor response (size at 4-day intervals): E2 pellet removed
Protocol: The xenograft model system is then utilized to test the response of RB-deficient tumors to CDDP therapy. Tumors are developed in the flanks of mice by injecting MCF7 donor or siRb cells into the flanks of mice and implanting a […] (E2) pellet into the back. When tumors reached 100-110 mm^3, mice received 5 mg/kg CDDP every 4 days for 5 courses.
To assess the role of RB in the therapeutic response of MCF7 cells in vivo, the xenograft model is again employed. Upon the attainment of tumors of approximately 100-120 mm^3, mice are deprived of estrogen and treated with Tam. […] (FIG. 4F). […] All tumors are weighed upon exclusion, and RB-deficient tumors are more than 3 times heavier than control tumors following Tam therapy (FIG. 4G).
Five- to 8-week-old female ovariectomized athymic nude mice are anesthetized, and an E2 pellet (1.7 mg/pellet, 90-day release) or placebo is surgically implanted in the back. Following implantation, 200 μl of a PBS- and phenol red-free Matrigel matrix basement membrane, solution (3:1) containing 2×10^6 cells is injected subcutaneously into the flank, or contralaterally where noted. Tumor volume is measured with calipers every 4 days using the equation V=0.52 (width)^2 ×(length). In the therapeutic studies, when tumor volume reaches 100-120 mm^3, animals are placed into 1 of 3 therapeutic groups (each group containing at least 6 animals): control animals retaining the estrogen pellet, antiestrogen-treated animals, or CDDP-treated animals. Animals in the antiestrogen treatment group are anesthetized, the estrogen pellet is surgically removed, and a Tam pellet (5 mg/pellet, 60-day release) implanted. The CDDP-treated animals receive 5 mg/kg CDDP injected i.p. on a q4dx5 schedule (every 4 days for 5 courses). All animals are injected i.p. with 150 mg/kg BrdU (Sigma-Aldrich) 1 hour prior to euthanization. Xenograft tumors are weighed and fixed in 10% neutral buffered formalin, paraffin embedded, and cut into 5-ÿm sections. For immunohistochemical staining, sections are deparaffinized in xylene and rehydrated through a graded series of ethanol/water solutions. A BrdU detection kit is utilized as recommended by the manufacturer. BrdU incorporation is scored in a blinded manner, and at least 500 cells per section are counted from several random fields.

[2] = tested on: ER-positive human breast tumors; assay: Recurrence outcome of ER-positive breast cancer patients on Tam monotherapy by RB/E2F target gene expression group; format: in vivo
Protocol: To determine the significance of RB/E2F target gene expression in human breast cancer, a tumor microarray data set representing 60 breast cancer patients with ER-positive disease who are treated with Tam monotherapy is analyzed. The tumor specimens in all cases are both micro- and macrodissected. […] This clustering placed the macro- and micro-dissected samples from 59 of 60 patients in the same gene expression groups, with only 1 tumor signature split between the high and medium gene expression groups on the condition tree.
To address the importance of the RB deficiency signature on therapeutic response, patient outcome is examined. […] For each patient, the time to disease recurrence is known, and a recurrence-free survival curve is generated (FIG. 6C). Patients responded poorly to Tam in the high expression group, wherein the median recurrence-free survival is 62.5 months, and only 35% remained recurrence free. […] Thus, compromised control of the RB/E2F axis is associated with poor response to Tam in human breast cancer.

[3] = tested on: MCF7, T47D, and Zr-75-1 cells; assay: Immunoblot of cyclin D1 and RB phosphorylation after hormone deprivation with Tam; format: cell-based, human; conditions: wild-type cells; CDT serum in addition to Tam, 72 hours
Protocol: RB-deficient cells are able to bypass estrogen ablation therapy. To determine the effect of first-line breast cancer antiestrogen therapies on RB function, cells are exposed to several therapeutically relevant conditions. Specifically, wild-type MCF7, T47D, and Zr-75-1 cells are cultured in medium containing either FBS or charcoal dextran-treated (CDT) serum in addition to Tam, so as to antagonize ER function. […] U20S and SaOS2 cells are included as controls for RB and PI 61NK4a expression levels, respectively (FIG. 4a).
as §1
Cells are harvested by trypsinization and lysed in RIPA buffer. Equal amounts of protein, as determined by Bio-Rad DC assay, are resolved by SDS-PAGE. Specific proteins are detected by standard immunoblotting procedures using the following primary antibodies: p16INK4a (F-12; 1:500 dilution), cyclin D1 (H295), PCNA (pc10), cyclin E (HE12), cyclin A (C-19), MCM7 (141.2), E2F3 (C-18), cdk4 (H-22), lamin B (M-20), p21 (C-19), p53 (Ab-6; 1:500 dilution), RB phospho ser 780 (9307S; 1:500 dilution) and anti-RB (G3-245; 1:100 dilution). […]

[4] = high expression group, Tam monotherapy

**Q.** With `CC/C(=C(\c1ccccc1)c1ccc(OCCN(C)C)cc1)c1ccccc1` [Tam, tamoxifen] as the compound, how does the “cell proliferation over 9 days” value (MCF7 cells; MCF7 cells lacking RB cultured in CDT/Tam) read?
**A.** The value was “continue to proliferate”.

**Q.** And the “cell proliferation over 9 days” value (MCF7 cells; control (RB-proficient) MCF7 cells cultured in CDT/Tam)?
**A.** Its value is “did not exhibit cell proliferation”.

**Q.** What about the “tumor response (size at 4-day intervals)” value ([1]; RB-deficient MCF7 tumors, Tam pellet) of the same compound?
**A.** The value was “did not regress”.

**Q.** And the “tumor size reached in the presence of Tam” value ([1]; RB-deficient MCF7 tumors, therapy started at approximately 100-120 mm^3)?
**A.** The value was roughly 150 mm^3.

**Q.** And the “tumor response (size at 4-day intervals)” value ([1]; RB-proficient MCF7 tumors, Tam pellet 5 mg/pellet)?
**A.** The value was “regressing to nearly immeasurable sizes”.

**Q.** What about the “tumor weight, RB-deficient tumors relative to control tumors” value ([1]; following Tam therapy) of the same compound?
**A.** Its value is “more than 3 times”.

**Q.** And the median recurrence-free survival [2, 4]?
**A.** The median recurrence-free survival was 62.5 months.

**Q.** And the “patients remaining recurrence free” value [2, 4]?
**A.** Its value is 35%.

**Q.** And the “patients remaining disease free” value ([2]; low/medium RB target gene expression groups, Tam therapy)?
**A.** Its value is “greater than 62%”.

**Q.** What about the “incidence of cancer recurrence” value ([2]; patients in the high RB/E2F target gene group, Tam monotherapy) of the same compound?
**A.** The value was 65%.

**Q.** And the “incidence of cancer recurrence” value ([2]; patients in the other 2 groups (low/medium), Tam monotherapy)?
**A.** Its value is 38%.

**Q.** And the “RB phosphorylation (immunoblot)” value [3]?
**A.** The value was “RB dephosphorylation”.

**Q.** What about the “cyclin D1 levels (immunoblot)” value [3] of the same compound?
**A.** Its value is “cyclin D1 levels decreased”.
